pIC50: −log10 of the molar value. Where two headings read alike, the source gives them in different places.
What was measured:
Experiment in all cases: Proliferation Assay
Format in all cases: cell-based
[1] = test system: C33A (cervix); settings: Homo sapiens, C-33-A, 72 h, read-out: IC50 inhibition of cell growth
Description: (§1) For the determination of the inhibitory capacity of compounds of the present invention (in the following: “test compound(s)”) on cell growth, cancer cells were seeded into microtitre plates, treated with different concentrations of test compound or left untreated, and after 72 h the protein content was determined as an equivalent for the cell number.
(§2) Test compounds were dissolved in 100% DMSO and predilutions in cell culture medium were prepared with a final concentration of 0.1% DMSO in medium. The cell culture medium for dilution of the test compounds, consecutive culturing of cell lines and usage during the assay was a cell line specific medium as recommended by the cell line supplier and identical for all three applications mentioned above. After a 24-hour pre-growth period of the seeded cancer cells, the test compound containing media or medium containing 0.1% DMSO as control was added to the cells. The cells were allowed to grow at 37° C. for 72 hours. In addition, all experiments contained a few plates with cells that were processed for measurement immediately after the 24 hours recovery period. These plates contained information about the cell number that existed before treatment, at time zero, and served to calculate the cytotoxicity and/or growth inhibitory effects.
(§3) After treatment, cells were precipitated by addition of 10% TCA (trichloracetic acid). Prior to fixation, the media was aspirated. After an hour of incubation at 4° C. the plates were washed twice with 400 μl of deionized water. Cells were then stained with 100 μl of a 0.08% wt/v SRB (sulforhodamine). The plates were allowed to sit for at least 30 min and washed six times with 1% acetic acid to remove unbound staining agent. The plates were left to dry at room temperature and bound SRB was solubilized with 100 μl of 10 mM Tris base. Measurement of optical density was performed at 560 nm on a Victor 2 plate reader (Perkin Elmer, Germany).
(§4) One common way to express the effect of an anticancer agent is to measure cell viability and survival in the presence of the test agent as % Treated/Control×100. The relationship between the viability and dose is called a dose response curve. Those dose response curves were determined by using algorithms developed by Oncolead GmbH & Co. KG, Munich, Germany, that can be compared to commercial applications, e.g. XLfit™ (ID Business Solutions Ltd., Guildford, UK) algorithm “205”.

[2] = test system: SKMEL5 (skin); settings: Homo sapiens, SK-MEL-5, 72 h, read-out: IC50 inhibition of cell growth
Description: as §1, §2, §3, §4

[3] = test system: JIMT1 (breast); settings: Homo sapiens, JIMT-1, 72 h, read-out: IC50 inhibition of cell growth
Description: as §1, §2, §3, §4

[4] = test system: 5637 (bladder); settings: 72 h, read-out: IC50 inhibition of cell growth
Description: as §1, §2, §3, §4

[5] = test system: SKOV3 (ovary); settings: Homo sapiens, SK-OV-3, 72 h, read-out: IC50 inhibition of cell growth
Description: as §1, §2, §3, §4

[6] = test system: CASKI (cervix); settings: Homo sapiens, Ca-Ski, 72 h, read-out: IC50 inhibition of cell growth
Description: as §1, §2, §3, §4

[7] = test system: HT29 (colon); settings: Homo sapiens, HT-29, 72 h, read-out: IC50 inhibition of cell growth
Description: as §1, §2, §3, §4

[8] = test system: SNB75 (brain); settings: Homo sapiens, SNB-75, 72 h, read-out: IC50 inhibition of cell growth
Description: as §1, §2, §3, §4

[9] = test system: MT3 (breast); settings: 72 h, read-out: IC50 inhibition of cell growth
Description: as §1, §2, §3, §4

[10] = test system: 22RV1 (prostate); settings: Homo sapiens, 72 h, read-out: IC50 inhibition of cell growth
Description: as §1, §2, §3, §4

[11] = test system: CLS439 (bladder); settings: 72 h, read-out: IC50 inhibition of cell growth
Description: as §1, §2, §3, §4

[12] = test system: ACHN (kidney); settings: Homo sapiens, 72 h, read-out: IC50 inhibition of cell growth
Description: as §1, §2, §3, §4

[13] = test system: HELA (cervix); settings: Homo sapiens, 72 h, read-out: IC50 inhibition of cell growth
Description: as §1, §2, §3, §4

[14] = test system: OVCAR3 (ovary); settings: Homo sapiens, OVCAR-3, 72 h, read-out: IC50 inhibition of cell growth
Description: as §1, §2, §3, §4

[15] = test system: HS729 (muscle); settings: 72 h, read-out: IC50 inhibition of cell growth
Description: as §1, §2, §3, §4

[16] = test system: J82 (bladder); settings: 72 h, read-out: IC50 inhibition of cell growth
Description: as §1, §2, §3, §4

[17] = test system: HEPG2 (liver); settings: Homo sapiens, 72 h, read-out: IC50 inhibition of cell growth
Description: as §1, §2, §3, §4

[18] = test system: ASPC1 (pancreas); settings: Homo sapiens, 72 h, read-out: IC50 inhibition of cell growth
Description: as §1, §2, §3, §4

[19] = test system: RDES (bone); settings: RD-ES, 72 h, read-out: IC50 inhibition of cell growth
Description: as §1, §2, §3, §4

[20] = test system: A431 (skin); settings: Homo sapiens, A-431, 72 h, read-out: IC50 inhibition of cell growth
Description: as §1, §2, §3, §4

[21] = test system: A204 (muscle); settings: Homo sapiens, 72 h, read-out: IC50 inhibition of cell growth
Description: as §1, §2, §3, §4

[22] = test system: MIAPACA2 (pancreas); settings: Homo sapiens, MIA PaCa-2, 72 h, read-out: IC50 inhibition of cell growth
Description: as §1, §2, §3, §4

[23] = test system: NCIH82 (lung); settings: Homo sapiens, NCI-H82, 72 h, read-out: IC50 inhibition of cell growth
Description: as §1, §2, §3, §4

[24] = test system: BT20 (breast); settings: Homo sapiens, BT-20, 72 h, read-out: IC50 inhibition of cell growth
Description: as §1, §2, §3, §4

[25] = test system: DU145 (prostate); settings: Homo sapiens, DU-145, 72 h, read-out: IC50 inhibition of cell growth
Description: as §1, §2, §3, §4

## COc1cccc(C(=O)Nc2nc3cc4c(cc3[nH]2)OC(F)(F)O4)c1 [Compound 56, N-(2,2-difluoro-5H-[1,3]dioxolo[4′,5′:4,5]benzo[1,2-d]imidazol-6-yl)-3-methoxybenzamide]
[1]
  pIC50: ≥ 6.00
[2]; SKMEL5 (skin)
  pIC50: ≥ 6.00
[2]; SKMELS (skin)
  pIC50: ≥ 7.00
[3]
  pIC50: ≥ 6.00
[4]
  pIC50: ≥ 6.00
[5]
  pIC50: ≥ 6.00
[6]
  pIC50: ≥ 6.00
[7]
  pIC50: ≥ 6.00
[8]
  pIC50: ≥ 6.00
[9]
  pIC50: ≥ 6.00
[10]
  pIC50: ≥ 6.00
[11]
  pIC50: ≥ 6.00
[12]
  pIC50: ≥ 6.00
[13]
  pIC50: ≥ 6.00
[14]
  pIC50: ≥ 6.00
[15]
  pIC50: ≥ 6.00
[16]
  pIC50: ≥ 6.00
[17]
  pIC50: ≥ 6.00
[18]
  pIC50: ≥ 6.00
[19]
  pIC50: ≥ 6.00
[20]
  pIC50: ≥ 6.00
[21]
  pIC50: ≥ 6.00
[22]
  pIC50: ≥ 6.00
[23]
  pIC50: ≥ 6.00
[24]
  pIC50: ≥ 6.00
[25]
  pIC50: ≥ 6.00

Source: patent publication US20170240556A1, “BIFLUORODIOXALANE-AMINO-BENZIMIDAZOLE KINASE INHIBITORS FOR THE TREATMENT OF CANCER, AUTOIMMUNEINFLAMMATION AND CNS DISORDERS” (4SC DISCOVERY GMBH, priority 2012, published 2017)
